Eleven molecules from patent US11365195B2, “Atypical inhibitors of monoamine transporters; method of making; and use thereof” (THE UNITED STATES OF AMERICA, AS REPRESENTED BY THE …, priority 2017, dated 2022) can be followed below.

Read-outs that look alike come from different tables or passages of the source.

One data set concerns the target T1, SERT (Rattus norvegicus, UniProt P31652).
T1 construct: 100 μl of tissue preparation (2 mg of brain stem membranes per well); tissue Bioreclamation IVT (Hicksville, N.Y.); host or cells: male Sprague-Dawley rat brain stem membranes
Briefly: SERT radioligand binding in rat midbrain ([3H]-Citalopram competition). The protocol: (§1) Binding affinities of the analogue compounds were evaluated at the DAT and SERT in rat brain membranes, and sigma-1 in guinea pig brain membranes according to the following protocols.
SERT Radioligand Binding in Rat Midbrain
(§2) The tissue was centrifuged at 20,000 rpm for 10 min at 4° C. The pellet was suspended in cold buffer and centrifuged again using the same settings. The resulting pellet was resuspended in cold buffer at a concentration of 20 mg/mL OWW (original wet weight). On test day, all test compounds were freshly dissolved in 30% DMSO and 70% H2O to a stock concentration of 1 mM or 100 μM. When necessary, to assist the solubilization of compounds, 10 μl of glacial acetic acid was added along with the DMSO (in place of 10 μl final H2O volume). Each test compound was then diluted into 10 half-log serial dilutions using 30% DMSO vehicle. […] Non-specific binding was determined using 10 μL Fluoxetine HCl and total binding was determined with 30% DMSO vehicle. The reaction was started with the addition of the tissue. All compound dilutions were tested in triplicate and the reaction incubated for 60 min at room temperature. The reaction was terminated by filtration through Perkin Elmer Uni-Filter-96 GF/B, presoaked for 60 min in 0.3% polyethylenimine, using a Brandel 96-Well Plates Harvester Manifold (Brandel Instruments, Gaithersburg, Md.). The filters were washed 3 times with 3 mL (3×1 mL/well) of ice cold binding buffer. […] These analyses were performed using GraphPad Prism version 6.00 for Macintosh (GraphPad Software, San Diego, Calif.).

Another data set addresses T2, σ1R (Cavia porcellus, UniProt Q60492).
T2 construct: tissue BioReclamation IVT (Hicksville, N.Y.); host or cells: male Hartley guinea pig brain cortex membranes
Briefly: σ1R radioligand binding in guinea pig cortex ([3H]-(+)-Pentazocine competition). The conditions noted are these: for σ1/DAT: ratio of σ1 to DAT affinity values; for σ1/SERT: ratio of σ1 to SERT affinity values. On the procedure: as §1
σ1R Radioligand Binding in Guinea Pig Cortex
Male Hartley guinea pig cortices were dissected from freshly harvested brains (shipped cold in PBS buffer from BioReclamation IVT (Hicksville, N.Y.)) and frozen at −80° C. for future use. […] The supernatant was collected in a clean tube and the pellet re-suspended in 10 ml of cold buffer and centrifuged again (˜1,200 rpm) for 10 min at 4° C. […] The final pellet was suspended in ice-cold binding buffer at 50 mg/ml concentration. […] All test compounds were freshly dissolved in 30% DMSO and 70% H2O to a stock concentration of 1 mM or 100 μM. When necessary, to assist the solubilization of compounds, 10 μl of glacial acetic acid was added along with the DMSO (in place of 10 μl final H2O volume). Each test compound was then diluted into 10 half-log serial dilutions using 30% DMSO as the vehicle. […] Nonspecific binding was determined using either 10 μM PRE084 or 10 μM (+)-Pentazocine and total binding was determined with 30% DMSO vehicle (3% DMSO final concentration). […] The filters were washed 3 times with 3 ml (3×1 ml/well) of ice cold binding buffer.

For another data set, the target named is T3, DAT (Rattus norvegicus, UniProt P23977).
T3 construct: 100 μl of tissue preparation (1.5 mg of brain striatum membranes per well); tissue Bioreclamation IVT (Hicksville, N.Y.); host or cells: male Sprague-Dawley rat brain striatum membranes
T3 sequence (P23977 whole entry): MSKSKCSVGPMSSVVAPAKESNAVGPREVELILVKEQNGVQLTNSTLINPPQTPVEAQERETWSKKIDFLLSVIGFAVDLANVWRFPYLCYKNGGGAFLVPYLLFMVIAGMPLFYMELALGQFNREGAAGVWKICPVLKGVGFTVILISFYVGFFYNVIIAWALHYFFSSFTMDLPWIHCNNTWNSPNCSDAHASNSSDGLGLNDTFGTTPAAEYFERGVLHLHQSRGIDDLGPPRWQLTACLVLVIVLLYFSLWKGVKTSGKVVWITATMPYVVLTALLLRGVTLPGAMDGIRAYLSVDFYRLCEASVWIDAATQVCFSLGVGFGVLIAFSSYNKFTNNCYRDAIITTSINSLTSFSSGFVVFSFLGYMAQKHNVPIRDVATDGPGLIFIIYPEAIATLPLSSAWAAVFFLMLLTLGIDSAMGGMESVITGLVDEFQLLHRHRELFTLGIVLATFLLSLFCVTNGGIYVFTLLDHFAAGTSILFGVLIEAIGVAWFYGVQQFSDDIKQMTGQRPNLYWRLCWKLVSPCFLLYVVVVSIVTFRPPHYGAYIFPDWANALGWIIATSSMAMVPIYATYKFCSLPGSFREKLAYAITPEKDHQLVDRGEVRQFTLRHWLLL
The data set is described as follows: DAT radioligand binding in rat striatum ([3H]-WIN35,428 competition). To be noted: for SERT/DAT: ratio of SERT Ki to DAT Ki. On the procedure:
as §1
DAT Radioligand Binding in Rat Striatum
as §2, with “of 15” for “of 20”, “100 μM” for “100 μM.”, “[…] Indatraline” for “μL Fluoxetine HCl”, “tissue. […]” for “tissue. All compound dilutions were tested in triplicate and the reaction incubated for 60 min at room temperature. The reaction was terminated by filtration through Perkin Elmer Uni-Filter-96 GF/B, presoaked for 60 min in 0.3% polyethylenimine, using a Brandel 96-Well Plates Harvester Manifold (Brandel Instruments, Gaithersburg, Md.).”

Data set [1] can be described thus: Phase I metabolic stability in rat liver microsomes. The class given is in vitro ADME. To be noted: for Phase I in Liver Microsomes, Negative Control: rat liver microsomes lacking NADPH; for Phase I in Liver Microsomes, Rat: with NADPH, 10 μM compound, 0.5 mg/mL microsomes. The protocol:
Methods: Phase I metabolic stability assays were conducted in rat liver microsomes. For phase I metabolism, the reactions were carried out with 100 mM potassium phosphate buffer, pH 7.4, in the presence of NADPH regenerating system (1.3 mM NADPH, 3.3 mM glucose 6-phosphate, 3.3 mM MgCl2, 0.4 U/mL glucose-6-phosphate dehydrogenase, […] sodium citrate). Reactions in triplicate were initiated by addition of the liver microsomes to the incubation mixture (compound final concentration was 10 μM; 0.5 mg/mL microsomes). Compound disappearance was monitored via LC/MS/MS. […] The total run time for each analyte was 5.0 min.
On the technique in general: Liver microsomes are a subcellular fraction often used to study metabolism.

Setting [2] is: rat midbrain/brain stem membranes, [3H]-Citalopram, mean ± SEM, read-out: SERT (rat mid-brain-stem) Ki ± SEM.
Setting [3] is: rat striatum membranes, [3H]-WIN35,428, mean ± SEM, read-out: DAT (rat striatum) Ki ± SEM.

For orientation: Ki means the dissociation constant of the complex between target and ligand, obtained from inhibition or displacement. The term Kd denotes the equilibrium constant for the complex coming apart.

T2 sequence (Q60492 whole entry): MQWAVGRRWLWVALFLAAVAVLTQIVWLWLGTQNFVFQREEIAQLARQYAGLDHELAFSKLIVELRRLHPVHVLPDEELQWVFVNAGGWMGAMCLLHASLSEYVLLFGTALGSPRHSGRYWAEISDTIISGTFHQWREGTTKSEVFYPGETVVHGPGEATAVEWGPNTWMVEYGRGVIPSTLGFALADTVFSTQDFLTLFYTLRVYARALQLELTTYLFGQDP
T1 sequence (P31652 whole entry): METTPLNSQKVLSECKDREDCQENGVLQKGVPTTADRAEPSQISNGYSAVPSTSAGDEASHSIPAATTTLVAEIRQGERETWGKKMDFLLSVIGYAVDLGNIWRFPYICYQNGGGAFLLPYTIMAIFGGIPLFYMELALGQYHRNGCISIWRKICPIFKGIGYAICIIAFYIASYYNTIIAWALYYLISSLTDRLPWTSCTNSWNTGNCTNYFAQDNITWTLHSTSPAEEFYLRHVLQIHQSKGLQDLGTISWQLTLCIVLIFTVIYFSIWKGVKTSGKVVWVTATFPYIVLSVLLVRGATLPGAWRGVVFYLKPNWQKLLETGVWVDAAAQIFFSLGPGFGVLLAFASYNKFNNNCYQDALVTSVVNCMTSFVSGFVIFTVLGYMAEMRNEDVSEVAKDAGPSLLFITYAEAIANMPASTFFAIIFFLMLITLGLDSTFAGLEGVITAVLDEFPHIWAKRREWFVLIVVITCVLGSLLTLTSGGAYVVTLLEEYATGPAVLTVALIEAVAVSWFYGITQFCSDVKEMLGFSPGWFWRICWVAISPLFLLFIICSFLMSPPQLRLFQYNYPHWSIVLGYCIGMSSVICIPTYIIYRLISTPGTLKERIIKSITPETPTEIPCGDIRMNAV

As to `Cl.O=C(c1ccc(F)cc1)N1CCC(NCC[S+]([O-])C(c2ccc(F)cc2)c2ccc(F)cc2)CC1` (stereo not drawn) [JBG02-056, (4-((2-((Bis(4-fluorophenyl)methyl)sulfinyl)ethyl)amino)piperidin-1-yl)(4-fluorophenyl)methanone], the Ki on SERT (setting [2]) amounted to 4620 ± 379 nM. At σ1R, the affinity, expressed as Kd, was 1320 ± 36.5 nM; the σ1/DAT is on record as 17.10; the σ1/SERT is listed as 0.29. Moreover, the Ki at DAT (setting [3]) was 77.2 ± 4.54 nM. Besides, on DAT, the SERT/DAT turned out to be 59.84. In data set [1] (0 min), the “Phase I in Liver Microsomes, Negative Control” value (“Phase I … Negative Control” for short) was 100% and the “Phase I in Liver Microsomes, Rat” value was determined as 100%. Further, in data set [1] (30 min), the “Phase I … Negative Control” value was 97% and the “Phase I in Liver Microsomes, Rat” value came to 100%. Also, in data set [1] (60 min), the “Phase I … Negative Control” value is on record as 91% and the “Phase I in Liver Microsomes, Rat” value was 79%.

As to `Cl.Cl.OC(CNC1CCN(CCSC(c2ccc(F)cc2)c2ccc(F)cc2)CC1)Cc1ccccc1` (stereo not drawn) [JBG01-061, 1-((1-(2-((Bis(4-fluorophenyl)methyl)thio)ethyl)piperidin-4-yl)amino)-3-phenylpropan-2-ol], the Ki was found to be 66.3 ± 2.81 nM on SERT (setting [2]) and 47.7 ± 2.62 nM on DAT (setting [3]). Also, on σ1R, the σ1/DAT was 1.84. Also, the σ1/SERT on σ1R was determined as 1.33. For the same molecule, the SERT/DAT at DAT is 1.39. The “Phase I … Negative Control” value in data set [1] (0 min) came to 100%; in data set [1] (60 min), 109%. Also, the figures for the “Phase I in Liver Microsomes, Rat” value in data set [1] (0 min), in data set [1] (30 min) and in data set [1] (60 min) were 100%, 83% and 69%, respectively.

On to `C[C@@H]1CN(CCSC(c2ccc(F)cc2)c2ccc(F)cc2)C[C@H](C)N1CC(O)Cc1ccccc1` (stereo partly drawn) [RDS03-095, 1-((2S,6R)-4-(2-((bis(4-fluorophenyl)methyl)thio)ethyl)-2,6-dimethylpiperazin-1-yl)-3-phenylpropan-2-ol], for which the Ki is 1600 ± 152 nM on SERT (setting [2]) and 2 ± 0.15 nM on DAT (setting [3]). Further, the σ1/DAT at σ1R turned out to be 7.60. In addition, at σ1R, the σ1/SERT was 0.010. On DAT, the SERT/DAT came to 800.00. The “Phase I … Negative Control” value in data set [1] (0 min) amounted to 100%; in data set [1] (30 min), 117%; in data set [1] (60 min), 125%. Also, the “Phase I in Liver Microsomes, Rat” value was 100% in data set [1] (0 min), 42% in data set [1] (30 min) and 10% in data set [1] (60 min). Further, the “stability to Phase I metabolism (in words)” value in data set [1] (rat liver microsomes fortified with NADPH) is listed as “susceptibility”.

Regarding `Cl.Cl.Fc1ccc(CN2CCC(NCCSC(c3ccc(F)cc3)c3ccc(F)cc3)CC2)cc1` [JBG01-077, N-(2-((Bis(4-fluorophenyl)methyl)thio)ethyl)-1-(4-fluorobenzyl)piperidin-4-amine], the figures for the Ki on SERT (setting [2]) and at DAT (setting [3]) were 277 ± 5.94 nM and 25.5 ± 6.95 nM, respectively. The σ1/DAT at σ1R was found to be 0.52. The σ1/SERT on σ1R was determined as 0.048. For the same molecule, on DAT, the SERT/DAT was determined as 10.86. Besides, the entries for the “Phase I … Negative Control” value in data set [1] (0 min) and in data set [1] (60 min) were 100% and 111%, respectively. In addition, the figures for the “Phase I in Liver Microsomes, Rat” value in data set [1] (0 min), in data set [1] (30 min) and in data set [1] (60 min) were 100%, 88% and 70%, respectively.

As for `CC(C)(C)CN1CCC(NCCSC(c2ccc(F)cc2)c2ccc(F)cc2)CC1` [JBG02-066, N-(2-((Bis(4-fluorophenyl)methyl)thio)ethyl)-1-neopentylpiperidin-4-amine], the inhibition constant Ki on SERT (setting [2]) was 947 ± 101 nM; on DAT (setting [3]), 279 ± 39.4 nM. Moreover, at σ1R, the σ1/DAT turned out to be 1.13. In addition, on DAT, the SERT/DAT is recorded as 3.39.

`CC(O)CN1CCC2(CCN(CC[S+]([O-])C(c3ccc(F)cc3)c3ccc(F)cc3)CC2)C1` (stereo not drawn) [RDS04-014]: the Ki on SERT (setting [2]) stood at 617 ± 54.8 nM. Moreover, at σ1R, the σ1/DAT is on record as 0.14 and the σ1/SERT was 0.11. Moreover, the Ki on DAT (setting [3]) was 449 ± 120 nM. In addition, at DAT, the SERT/DAT worked out at 1.37.

Take `Cl.Cl.Fc1ccc(C(SCCNC2CCN(CCc3ccccc3)CC2)c2ccc(F)cc2)cc1` [JBG01-084, N-(2-((Bis(4-fluorophenyl)methyl)thio)ethyl)-1-phenethylpiperidin-4-amine]: the Ki on SERT (setting [2]) came to 144 ± 17 nM; at DAT (setting [3]), 31.5 ± 5.32 nM. Further, the σ1/DAT at σ1R was 1.83. Besides, the σ1/SERT at σ1R was 0.40. The SERT/DAT at DAT came out at 4.57.

Turning to `Cl.Cl.Fc1ccc(CNC2CCN(CCSC(c3ccc(F)cc3)c3ccc(F)cc3)CC2)cc1` [JBG01-064, 1-(2-((Bis(4-fluorophenyl)methyl)thio)ethyl)-N-(4-fluorobenzyl)piperidin-4-amine], the Ki at SERT (setting [2]) amounted to 267 ± 9.25 nM. Moreover, at σ1R, the σ1/DAT is given as 0.74 and the σ1/SERT is listed as 0.16. In addition, the Ki on DAT (setting [3]) is 55.9 ± 6.08 nM. For the same molecule, the SERT/DAT on DAT is 4.78.

In the case of `Fc1ccc(C(SCCN2CCC(NCc3ccccc3)CC2)c2ccc(F)cc2)cc1` [JBG01-057, N-Benzyl-1-(2-((bis(4-fluorophenyl)methyl)thio)ethyl)piperidin-4-amine], at SERT (setting [2]), the Ki is 329 ± 34.3 nM. On σ1R, the σ1/DAT was 0.56 and the σ1/SERT is 0.19. Further, the Ki on DAT (setting [3]) came to 108 ± 17.5 nM. Further, the SERT/DAT at DAT was determined as 3.05.

For `Cl.Cl.OC(Cc1ccccc1)CN(CC(O)Cc1ccccc1)C1CCN(CCSC(c2ccc(F)cc2)c2ccc(F)cc2)CC1` (stereo not drawn) [JBG01-056, 3,3′-((1-(2-((Bis(4-fluorophenyl)methyl)thio)ethyl)piperidin-4-yl)azanediyl)bis(1-phenylpropan-2-ol)], affinity at SERT was put at a Ki of 1570 ± 315 nM. Further, on σ1R, the dissociation constant Kd amounted to 326 ± 22.4 nM, the σ1/DAT is listed as 1.75 and the σ1/SERT was determined as 0.21. Besides, at DAT, the Ki turned out to be 186 ± 46.4 nM and the SERT/DAT worked out at 8.44.

As to `Fc1ccc(C(SCCNC2CCN(CC3CC3)CC2)c2ccc(F)cc2)cc1` [JBG02-080, N-(2-((bis(4-fluorophenyl)methyl)thio)ethyl)-1-(cyclopropylmethyl)piperidin-4-amine], the Ki on SERT (setting [2]) is 1600 ± 164 nM; on DAT (setting [3]), 407 ± 65 nM. In addition, the σ1/DAT at σ1R stood at 0.66. Besides, the SERT/DAT on DAT is reported as 3.93.
